PubChem BioAssay AID330 (DTP/NCI, 2004)
Values joined by “and” are separate entries in the source; they are usually repeats but may differ in a detail not shown here. Identical values can stand only once. Inconclusive results and toxic doses are left out. Rule for the calls: active = survival T/C of 150% or more; inactive = T/C below 125% in these data.

Test system: P388 leukemia ip, CD2F1 mice, survival T/C
Test: NCI In Vivo Anticancer Drug Screen. Data for tumor model P388 Leukemia (intraperitoneal) in CD2F1 (CDF1) mice
Settings: endpoint: median survival time, higher = longer survival
How it was run: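 Mice carrying the transplanted tumor received test compound or vehicle. Survival was recorded in each group, and the value is the treated-group measurement divided by that of the vehicle-treated control group.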

[1] = dose: 50.0 mg/kg/injection, schedule: Q01DX009 (ip), vehicle: saline with Tween-80
[2] = dose: 100.0 mg/kg/injection, schedule: Q01DX009 (ip), vehicle: saline with Tween-80
[3] = dose: 200.0 mg/kg/injection, schedule: Q01DX009 (ip), vehicle: saline with Tween-80
[4] = dose: 100.0 mg/kg/injection, schedule: Q04DX002 (ip), vehicle: saline with Tween-80
[5] = dose: 200.0 mg/kg/injection, schedule: Q04DX002 (ip), vehicle: saline with Tween-80
[6] = dose: 400.0 mg/kg/injection, schedule: Q04DX002 (ip), vehicle: saline with Tween-80
[7] = dose: 50.0 mg/kg/injection, schedule: Q01DX005 (ip), vehicle: Klucel (hydroxypropylcellulose) (HPC)
[8] = dose: 100.0 mg/kg/injection, schedule: Q01DX005 (ip), vehicle: Klucel (hydroxypropylcellulose) (HPC)
[9] = dose: 200.0 mg/kg/injection, schedule: Q01DX005 (ip), vehicle: Klucel (hydroxypropylcellulose) (HPC)
[10] = dose: 50.0 mg/kg/injection, schedule: Q01DX005 (ip), vehicle: saline with Tween-80
[11] = dose: 100.0 mg/kg/injection, schedule: Q01DX005 (ip), vehicle: saline with Tween-80
[12] = dose: 200.0 mg/kg/injection, schedule: Q01DX005 (ip), vehicle: saline with Tween-80
[13] = dose: 100.0 mg/kg/injection, schedule: Q04DX003 (ip), vehicle: saline

Measured: T/C

O=C1c2ccccc2C(=O)c2c(O)c(NCCCNCCO)cc(O)c21
inactive: dose: 2.5 mg/kg/injection, schedule: Q01DX009 (ip), vehicle: acid diluted with saline 103 % of control | dose: 5.0 mg/kg/injection, schedule: Q01DX009 (ip), vehicle: acid diluted with saline 108 % of control | dose: 10.0 mg/kg/injection, schedule: Q01DX009 (ip), vehicle: acid diluted with saline 103 % of control | dose: 20.0 mg/kg/injection, schedule: Q01DX009 (ip), vehicle: acid diluted with saline 112 % of control | dose: 40.0 mg/kg/injection, schedule: Q01DX009 (ip), vehicle: acid diluted with saline 111 % of control | dose: 80.0 mg/kg/injection, schedule: Q01DX009 (ip), vehicle: acid diluted with saline 100 % of control

O=C1OC(=Nc2cccc([N+](=O)[O-])c2)c2ccccc21
inactive: dose: 25.0 mg/kg/injection, schedule: Q01DX009 (ip), vehicle: saline with Tween-80 99 % of control and 103 % of control | [1] 100 % of control and 95 % of control | [2] 99 % of control and 95 % of control | [3] 88 % of control and 95 % of control

Nc1nc(SCc2ccccc2)sc1C(=O)N1CCCCC1
inactive: dose: 50.0 mg/kg/injection, schedule: Q01DX009 (ip), vehicle: Klucel (hydroxypropylcellulose) (HPC) 100 % of control | dose: 100.0 mg/kg/injection, schedule: Q01DX009 (ip), vehicle: Klucel (hydroxypropylcellulose) (HPC) 100 % of control | dose: 200.0 mg/kg/injection, schedule: Q01DX009 (ip), vehicle: Klucel (hydroxypropylcellulose) (HPC) 101 % of control

O=C(CN1C(=O)NC(c2ccccc2)(c2ccccc2)C1=O)NCCN1CCOCC1
inactive: dose: 60.0 mg/kg/injection, schedule: Q01DX005 (ip), vehicle: saline with Tween-80 97 % of control | dose: 120.0 mg/kg/injection, schedule: Q01DX005 (ip), vehicle: saline with Tween-80 96 % of control | dose: 240.0 mg/kg/injection, schedule: Q01DX005 (ip), vehicle: saline with Tween-80 97 % of control

[CH3][Ge]([CH3])[c]1ccccc1
inactive: dose: 50.0 mg/kg/injection, schedule: Q01DX009 (ip), vehicle: saline 101 % of control | dose: 100.0 mg/kg/injection, schedule: Q01DX009 (ip), vehicle: saline 95 % of control

O=C(CC(=NCCN=C(CC(=O)c1ccccc1)c1ccccc1)c1ccccc1)c1ccccc1.[Cu]
inactive: [4] 98 % of control | [5] 96 % of control | [6] 95 % of control

COc1ccc(C(c2cc(C(C)(C)C)c(O)c(C(C)(C)C)c2)n2ccnc2)cc1 (configuration not stated)
inactive: dose: 50.0 mg/kg/injection, schedule: Q01DX005 (ip), vehicle: distilled water + alcohol 105 % of control | dose: 100.0 mg/kg/injection, schedule: Q01DX005 (ip), vehicle: distilled water + alcohol 103 % of control | dose: 200.0 mg/kg/injection, schedule: Q01DX005 (ip), vehicle: distilled water + alcohol 99 % of control

O=C(O)CNC(=O)C(CSCc1ccccc1)NC(=O)OCc1ccccc1 (configuration not stated)
inactive: [7] 103 % of control | [1] 101 % of control | [8] 102 % of control | [2] 99 % of control | [9] 100 % of control | [3] 99 % of control

c1ccc2c3c(ccc2c1)Oc1ccc2ccccc2c1C3
inactive: dose: 100.0 mg/kg/injection, schedule: Q01DX001 (ip), vehicle: Klucel (hydroxypropylcellulose) (HPC) 102 % of control | dose: 200.0 mg/kg/injection, schedule: Q01DX001 (ip), vehicle: Klucel (hydroxypropylcellulose) (HPC) 97 % of control | dose: 400.0 mg/kg/injection, schedule: Q01DX001 (ip), vehicle: Klucel (hydroxypropylcellulose) (HPC) 100 % of control

CC12CCC(S)CC1=CCC1C2CCC2(C)/C(=N/NC(N)=S)CCC12 (configuration not stated)
inactive: dose: 25.0 mg/kg/injection, schedule: Q01DX009 (ip), vehicle: distilled water + Tween-80 105 % of control | dose: 50.0 mg/kg/injection, schedule: Q01DX009 (ip), vehicle: distilled water + Tween-80 100 % of control | dose: 100.0 mg/kg/injection, schedule: Q01DX009 (ip), vehicle: distilled water + Tween-80 105 % of control | dose: 200.0 mg/kg/injection, schedule: Q01DX009 (ip), vehicle: distilled water + Tween-80 98 % of control | dose: 400.0 mg/kg/injection, schedule: Q01DX009 (ip), vehicle: distilled water + Tween-80 107 % of control

O=C1NC(=O)C(=Cc2ccc(Cl)cc2)C(=O)N1
inactive: [7] 114 % of control | [8] 116 % of control

COC1=CC2C3C(=O)NC(=O)C3C1C1CC(C#N)C21OC (configuration not stated)
inactive: dose: 100.0 mg/kg/injection, schedule: Q01DX001 (ip), vehicle: saline with Tween-80 104 % of control | dose: 200.0 mg/kg/injection, schedule: Q01DX001 (ip), vehicle: saline with Tween-80 114 % of control | dose: 400.0 mg/kg/injection, schedule: Q01DX001 (ip), vehicle: saline with Tween-80 107 % of control

O=c1c(N=Nc2ccccc2)c(O)n(-c2ccc(Cl)cc2)c(=S)n1-c1ccc(Br)cc1
inactive: [4] 102 % of control | [5] 103 % of control | [6] 94 % of control

C=CCC1(C(C)C(O)c2cc(OC)c(OC)c(OC)c2)CC(OC)C=CC1=O (configuration not stated)
inactive: dose: 4.0 mg/kg/injection, schedule: Q01DX009 (ip), vehicle: olive oil, sesame oil, peanut oil 116 % of control | dose: 8.0 mg/kg/injection, schedule: Q01DX009 (ip), vehicle: olive oil, sesame oil, peanut oil 111 % of control | dose: 16.0 mg/kg/injection, schedule: Q01DX009 (ip), vehicle: olive oil, sesame oil, peanut oil 111 % of control

COc1ccc(C=NCCC[Si]23OCCN(CCO2)CCO3)c(OC)c1OC
inactive: [7] 98 % of control | [8] 94 % of control | [9] 103 % of control

CCCCCCC(=O)/C=C/c1cccc([N+](=O)[O-])c1
inactive: [1] 89 % of control | [2] 95 % of control | [3] 94 % of control

C[Si]1(C)CC[Si](C)(C)S1
inactive: [10] 103 % of control | [11] 108 % of control

CCN(CC)CC.CCOc1ccc(NC(=O)N=C=[N-])cc1.[CH-]1CCCCC1.[CH-]1CCCCC1.[CH-]1CCCCC1.[Cl-].[Sn+4]
inactive: dose: 6.0 mg/kg/injection, schedule: Q01DX005 (ip), vehicle: Klucel (hydroxypropylcellulose) (HPC) 101 % of control | dose: 12.0 mg/kg/injection, schedule: Q01DX005 (ip), vehicle: Klucel (hydroxypropylcellulose) (HPC) 89 % of control

CCSC(C(OC(C)=O)C(OC(C)=O)C(OC(C)=O)C(COC(C)=O)OC(C)=O)n1cnc2c(Cl)ncnc21 (configuration not stated)
inactive: [10] 100 % of control | [11] 90 % of control | [12] 96 % of control

O=C(CCS(=O)(=O)CCC(=O)c1ccccc1)c1ccccc1
inactive: [13] 90 % of control | dose: 200.0 mg/kg/injection, schedule: Q04DX003 (ip), vehicle: saline 89 % of control | dose: 400.0 mg/kg/injection, schedule: Q04DX003 (ip), vehicle: saline 88 % of control

COC1=CC2CCN3C=C(C#N)C(C#N)CC3C2C=C1OC (configuration not stated)
inactive: [10] 95 % of control | [11] 111 % of control | [12] 111 % of control

COC(=O)C1c2ccccc2C(C(=O)OC)C(C(=O)OC)C(C(=O)OC)c2ccccc21 (configuration not stated)
inactive: dose: 100.0 mg/kg/injection, schedule: Q04DX003 (ip), vehicle: Klucel (hydroxypropylcellulose) (HPC) 102 % of control | dose: 200.0 mg/kg/injection, schedule: Q04DX003 (ip), vehicle: Klucel (hydroxypropylcellulose) (HPC) 102 % of control | dose: 400.0 mg/kg/injection, schedule: Q04DX003 (ip), vehicle: Klucel (hydroxypropylcellulose) (HPC) 99 % of control

COC(=O)C/C(=C\c1cn(C(C)=O)c2ccccc12)[N+](=O)[O-]
inactive: dose: 6.25 mg/kg/injection, schedule: Q01DX005 (ip), vehicle: Klucel (hydroxypropylcellulose) (HPC) 89 % of control | dose: 12.5 mg/kg/injection, schedule: Q01DX005 (ip), vehicle: Klucel (hydroxypropylcellulose) (HPC) 98 % of control | dose: 25.0 mg/kg/injection, schedule: Q01DX005 (ip), vehicle: Klucel (hydroxypropylcellulose) (HPC) 91 % of control

CCOC(=O)c1sc(=S)n(CC)c1C
inactive: [10] 107 % of control | [11] 99 % of control

CCCCCC(Cn1ccnc1)c1c(Cl)cccc1Cl (configuration not stated)
inactive: dose: 25.0 mg/kg/injection, schedule: Q04DX003 (ip), vehicle: saline 103 % of control | dose: 50.0 mg/kg/injection, schedule: Q04DX003 (ip), vehicle: saline 100 % of control | [13] 91 % of control

CCCCNC1(N(C)C)N=C(N(C)C)N=C(N(C)C)O1 (configuration not stated)
inactive: dose: 50.0 mg/kg/injection, schedule: Q01DX005 (ip), vehicle: saline 88 % of control | dose: 100.0 mg/kg/injection, schedule: Q01DX005 (ip), vehicle: saline 89 % of control | dose: 200.0 mg/kg/injection, schedule: Q01DX005 (ip), vehicle: saline 95 % of control
